Measured values: patent US20230045902A1, “COMPOSITION FOR REINFORCING FUNCTION OF STEM CELL” (SCM LIFE SCIENCE CO., LTD., priority 2020, published 2023)

Key:
Assay type in all cases: cell-based
Galectin 1 = Galectin 1 expression change in mesenchymal stem cells by qRT-PCR; details: MSC treated 24 hours, Table 1 concentrations; FIG. 5
Text: 1.3. Confirmation of Change in Galectin 1 Expression According to the Treatment with the Experimental Group Galectin 1 is known as a stem cell potency marker closely related to the high efficacy of stem cells, and it is known that the more the expression increases, the stronger the stem cell function and efficacy. Therefore, in order to further confirm whether the treatment with the experimental group induces the inflammation and immune regulation ability of the mesenchymal stem cells, an experiment was performed to confirm the expression of Galectin 1. After culturing stem cells as in Experimental Example 1, total RNA was isolated using TRIzol (Invitrogen), and then cDNA was synthesized from total RNA using PrimeScript™ reagent Kit with gDNA Eraser (TaKaRa) and qRT-PCR was performed. Using this, a change in the expression of Galectin 1, an indicator of stem cell efficacy, was confirmed, and the result is shown in FIG. 5.

TSG6 and IDO = experiment: Concentration setting of IL-1β in MSC by expression of TSG6 and IDO; details: treated in MSC
Procedure: IL-1β, IFN-α and vitamin B6 were selected as candidate substances, and concentrations for function-enhancing were set. When IL-1β was treated in MSC, it was confirmed that the lowest effective concentration capable of increasing the expression of TSG6 and IDO was 20 ng/ml, and this was set as the standard.

IFN-γ = IFN-γ secretion in PHA-activated T-cells co-cultured with treated mesenchymal stem cells (IFN-γ kit); details: MSC treated 24 hours (Table 1 concentrations), co-cultured 3 days with PHA-activated T-cells; FIG. 3
Text: As a control group, mesenchymal stem cells that were not treated with the test substance were used.

[1] = system: indoleamine 2,3-dioxygenase (IDO); experiment: IDO expression change in mesenchymal stem cells by qRT-PCR; details: MSC treated 24 hours, Table 1 concentrations; FIG. 6
Procedure: At 37° C. and 5% CO2 incubator, mesenchymal stem cells in storage state (stored in LN2 tank) were thawed and cultured. At this time, they were cultured in a medium (DMEM, alpha-MEM) containing 10% FBS or 4% hPL. Cells were cultured until confluence reached about 80%. After seeding the cultured mesenchymal stem cells in a 100 mm dish, a candidate material for enhancing the mesenchymal stem cell function was selected.
The selected 20 ng/ml of IL-1β and vitamin B6 and IFN-α at different concentrations were combined, and the effect was confirmed by the change in indoleamine 2,3-dioxygenase (IDO) expression. IDO is known as an immunomodulatory factor that suppresses the proliferation of immune cells such as T cells by changing tryptophan, which is essential for T cell proliferation, into kynurenine. After culturing stem cells, total RNA was isolated using TRIzol (Invitrogen), and cDNA was synthesized from total RNA using PrimeScript™ reagent Kit with gDNA Eraser (TaKaRa), followed by qRT-PCR.
The selected candidate substances and their concentration combinations are shown in Table 1, and they were treated to mesenchymal stem cells for 24 hours, and the function-enhancing effect was confirmed. […]

[2] = system: Inducible costimulatory ligand (ICOSL); experiment: ICOSL expression change in mesenchymal stem cells by qRT-PCR; details: MSC treated 24 hours, Table 1 concentrations; FIG. 4
Procedure: Inducible costimulatory ligand (ICOSL) is known to inhibit activated T cells by inducing regulatory T cells. Since the function-enhancing effect of the mesenchymal stem cells according to the treatment with the experimental group was confirmed in Example 1.1, an experiment was performed to additionally confirm whether the treatment with the experimental group induces inflammation and immune regulation ability of the mesenchymal stem cells. After culturing stem cells as in Experimental Example 1, total RNA was isolated using TRIzol (Invitrogen), and then cDNA was synthesized from total RNA using PrimeScript™ reagent Kit with gDNA Eraser (TaKaRa) and qRT-PCR was performed. Through this, the expression change of ICOSL, which is a representative factor of inflammation and immune regulation, was confirmed, and the results are shown in FIG. 4.

Compound | expression of Galectin 1 (Galectin 1) | lowest effective concentration capable of increasing the expression of TSG6 and IDO (TSG6 and IDO) | change in IFN-γ secretion compared to the untreated control group (IFN-γ) | IDO expression change [1] | expression of ICOSL [2]
Interleukin 1 beta (IL-1β) | increased | 20 ng/mL | not significant | did not show a distinct expression change | increased
interferon alpha (IFN-α) | – | – | not significant | – | did not show a distinct increase
Cc1ncc(CO)c(CO)c1O.Cl [vitamin B6] | did not show a distinct increase | – | not significant | did not show a distinct expression change | did not show a distinct increase
